Patent publication US12454525B2, “IL4I1 inhibitors and methods of use” (Merck Sharp & Dohme LLC, priority 2020, dated 2025)

molecular target: T1, recombinant IL4I1 (Homo sapiens, UniProt Q96RQ9); experiment: IL4I1 Enzymatic Assay (Amplex Red/HRP coupled H2O2 detection); assay type: biochemical; settings: 240 min; four-hour pre-incubation with compound; 1 nM IL4I1, 1 mM each Phe/Tyr/Trp; ten-point titration; fluorescence readout; read-out: Potency EC50 (nM) (240 min)
T1 construct: purchased R&D Systems 5684-AO-020
T1 sequence (Q96RQ9 22-567): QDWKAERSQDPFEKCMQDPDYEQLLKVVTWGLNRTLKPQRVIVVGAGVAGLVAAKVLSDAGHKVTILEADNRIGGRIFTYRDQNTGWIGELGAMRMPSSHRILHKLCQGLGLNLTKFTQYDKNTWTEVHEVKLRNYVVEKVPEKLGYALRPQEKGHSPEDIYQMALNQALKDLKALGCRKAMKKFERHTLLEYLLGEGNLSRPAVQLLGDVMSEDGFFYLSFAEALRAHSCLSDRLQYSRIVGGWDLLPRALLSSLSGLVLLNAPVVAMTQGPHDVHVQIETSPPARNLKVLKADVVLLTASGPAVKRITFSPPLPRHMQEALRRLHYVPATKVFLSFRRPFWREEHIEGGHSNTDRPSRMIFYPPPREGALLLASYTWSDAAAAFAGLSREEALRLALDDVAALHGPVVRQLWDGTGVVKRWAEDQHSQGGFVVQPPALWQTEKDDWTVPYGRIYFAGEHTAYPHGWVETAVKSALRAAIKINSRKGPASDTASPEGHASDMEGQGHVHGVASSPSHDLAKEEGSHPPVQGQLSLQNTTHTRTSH
Method: Interleukin 4 inducible protein 1 (IL4I1) is an L-amino oxidase that catalyzes the oxidation of aromatic residues (Phe, Trp and Tyr): L-amino acid+H2O+O2→2-oxo acid+NH3+H2O2. Equal molar of H2O2 and the corresponding alpha-ketoacid are produced when IL4I1 and substrate are added. In this assay, the hydrogen peroxide generated by IL4I1 is then detected through a coupled reaction with Amplex Red (10-acetyl-3,7-dihydroxyphenoxazine) and […] (HRP) to produce Resorufin product that could be detected in the form of fluorescence signals. The assessment of the inhibitory effect of small molecules (EC50) on IL4I1 is measured by the effectiveness of the compounds to inhibit the production of H2O2.
Using this assay, the potency (EC50) of each compound was determined from a ten-point (1:3 serial dilution) titration curve using the following outlined procedure. To each well of a black flat-bottom Greiner (Cat #781076) 384 well-plate, 25 nL of compound (0.1% DMSO in final assay volume of 25 μL) was dispensed, followed by the addition of 12.5 μL of 1x assay buffer (50 mM Hepes 7.0 and 0.005% Tween20 (Sigma, Cat #P8341; low peroxide grade)) containing 2 nM of recombinant IL4I1 (R&D Systems, Cat #5684-AO-020). Plates were placed in an ambient temperature humidified chamber for a four-hour pre-incubation with compound. Subsequently, each reaction was initiated by the addition of 12.5 μL 1x assay buffer containing 2 mM of each aromatic amino acids (Phe/Tyr/Trp), 0.1 mM Amplex Red and 2 U/mL of HRP. The final reaction in each well of 25 μL consists of 1 nM of IL411, 1 mM of each residues (Phe, Tyr and Trp), 0.05 mM Amplex Red and 1 U/mL of HRP. It should be noted that the concentrations of Amplex Red and HRP used here are in excess such that the conversion of H2O2 to Resorufin product occurs instantaneously and non-rate limiting. Reactions were allowed to proceed for 120 minutes followed by fluorescence readout on a Spectramax with the following set parameters: 544 nm excitation/590 nm emission, 570 nm cutoff (EnVision is an alternative reader). Dose-response curves were generated by plotting percent effect (% product conversion; Y-axis) vs. Log10 compound concentrations (X-axis). EC50 values were calculated using a non-linear regression, four-parameters sigmoidal dose-response model and are shown in Table 16.

Compound | EC50
O=C1CCCN1Cc1ccc(Cn2c(=O)[nH]c3ccccc32)cn1 [Example 41, 1-((6-((2-oxopyrrolidin-1-yl)methyl)pyridin-3-yl)methyl)-1,3-dihydro-2H-benzo[d]imidazol-2-one] | 127 nM
COc1cccc(Cn2c(=O)n(C)c3cc(Cl)ccc32)c1 [Example 90, 5-chloro-1-(3-methoxybenzyl)-3-methyl-1,3-dihydro-2H-benzo[d]imidazol-2-one] | 227 nM
O=c1[nH]c2cccc(F)c2n1Cc1ccccc1 [Example 110, 1-benzyl-7-fluoro-1,3-dihydro-2H-benzimidazol-2-one] | 9160 nM
O=C1C=CCN1Cc1ccc(Cn2c(=O)[nH]c3ccccc32)cc1 [Example 2, 1-(4-((2-oxo-2,5-dihydro-1H-pyrrol-1-yl)methyl)benzyl)-1,3-dihydro-2H-benzo[d]imidazol-2-one] | 13 nM
CNC(=O)c1cc(C)cc(Cn2c(=O)[nH]c3ccccc32)c1 [Example 48, N,3-dimethyl-5-((2-oxo-2,3-dihydro-1H-benzo[d]imidazol-1-yl)methyl)benzamide] | 16 nM
COc1ccccc1Cn1c(=O)[nH]c2cccc(C)c21 [Example 91, 1-(2-methoxybenzyl)-7-methyl-1,3-dihydro-2H-benzo[d]imidazol-2-one] | 1340 nM
CC(=O)Nc1ccc(Cn2c(=O)[nH]c3ccccc32)cc1F [Example 32, N-{2-fluoro-4-[(2-oxo-2,3-dihydro-1H-benzimidazol-1-yl)methyl]phenyl} acetamide] | 11 nM
O=C1CCCN1Cc1ccc(Cn2c(=O)[nH]c3ccc(F)cc32)cc1 (single isomer, unassigned) [Example 84, 6-fluoro-1-(4-((2-oxopyrrolidin-1-yl)methyl)benzyl)-1,3-dihydro-2H-benzo[d]imidazol-2-one] | 10 nM
CC(=O)N(C)Cc1ccc(Cn2c(=O)[nH]c3ccccc32)cc1 [Example 73, N-methyl-N-(4-((2-oxo-2,3-dihydro-1H-benzo[d]imidazol-1-yl)methyl)benzyl)acetamide] | 24 nM
CS(=O)(=O)NC[C@H]1CC[C@H](Cn2c(=O)[nH]c3ccccc32)CC1 [Example 98, N-(((1r,4r)-4-((2-oxo-2,3-dihydro-1H-benzo[d]imidazol-1-yl)methyl)cyclohexyl)methyl)methanesulfonamide] | 1570 nM
CC(C1CCCCC1)n1c(=O)[nH]c2ccccc21 (stereo not drawn) [Example 88, 1-(1-cyclohexylethyl)-1,3-dihydro-2H-benzo[d]imidazol-2-one] | 10000 nM
O=C(NCC(F)(F)F)c1cccc(Cn2c(=O)[nH]c3ccccc32)c1 [Example 101, 3-((2-oxo-2,3-dihydro-1H-benzo[d]imidazol-1-yl)methyl)-N-(2,2,2-trifluoroethyl)benzamide] | 90 nM
CC(C)Oc1cccc(Cn2c(=O)[nH]c3ccccc32)c1 [Example 71, 1-(3-isopropoxybenzyl)-1,3-dihydro-2H-benzo[d]imidazol-2-one] | 45 nM
O=c1n(Cc2ccccc2)c2ccccc2n1C(F)F [Example 78, 1-benzyl-3-(difluoromethyl)-1,3-dihydro-2H-benzo[d]imidazol-2-one] | 443 nM
COc1ccccc1Cn1c(=O)[nH]c2ccc(C)cc21 [Example 86, 1-(2-methoxybenzyl)-6-methyl-1,3-dihydro-2H-benzo[d]imidazol-2-one] | 74 nM
O=c1[nH]c2ccccc2n1Cc1cnc2c(c1)CCC2 [Example 34, 1-[(6,7-dihydro-5H-cyclopenta[b]pyridin-3-yl)methyl]-1,3-dihydro-2H-benzimidazol-2-one] | 153 nM
O=c1[nH]c2ccccc2n1CCCCc1cccc2cccnc12 [Example 114, 1-(4-(quinolin-8-yl)butyl)-1,3-dihydro-2H-benzo[d]imidazol-2-one] | 107 nM
CC(=O)N[C@H]1CC[C@H](Cn2c(=O)[nH]c3ccccc32)CC1 [Example 99, N-((1r,4r)-4-((2-oxo-2,3-dihydro-1H-benzo[d]imidazol-1-yl)methyl)cyclohexyl)acetamide] | 2690 nM
COc1ccccc1Cn1c(=O)[nH]c2c(C)cccc21 [Example 92, 1-(2-methoxybenzyl)-4-methyl-1,3-dihydro-2H-benzo[d]imidazol-2-one] | 396 nM
CC(=O)NCc1ccc(Cn2c(=O)[nH]c3ccccc32)c(C)c1 [Example 50, N-({3-methyl-4-[(2-oxo-2,3-dihydro-1H-benzimidazol-1-yl)methyl]phenyl}methyl)acetamide] | 9 nM
O=C1NCc2ccc(Cn3c(=O)[nH]c4ccccc43)cc21 [Example 10, 1-[(3-oxo-2,3-dihydro-1H-isoindol-5-yl)methyl]-1,3-dihydro-2H-benzimidazol-2-one] | 22 nM

More lines, now with the values ahead:

EC50 | Compound
8 nM | O=C1CCCN1Cc1ccc(Cn2c(=O)[nH]c3ccccc32)cc1Cl [Example 18, 1-(3-chloro-4-((2-oxopyrrolidin-1-yl)methyl)benzyl)-1,3-dihydro-2H-benzo[d]imidazol-2-one]
6 nM | CNC(=O)c1csc(Cn2c(=O)[nH]c3ccccc32)c1 [Example 13, N-methyl-5-((2-oxo-2,3-dihydro-1H-benzo[d]imidazol-1-yl)methyl)thiophene-3-carboxamide]
7 nM | O=C1OCCN1Cc1ccc(Cn2c(=O)[nH]c3ccccc32)cc1 [Example 74, 3-(4-((2-oxo-2,3-dihydro-1H-benzo[d]imidazol-1-yl)methyl)benzyl) oxazolidin-2-one]
2 nM | N#Cc1n[nH]c2ccc(Cn3c(=O)[nH]c4ccccc43)cc12 [Example 42, 5-((2-oxo-2,3-dihydro-1H-benzo[d]imidazol-1-yl)methyl)-1H-indazole-3-carbonitrile]
5 nM | N#Cc1cccc(NC(=O)Cc2cccc(Cn3c(=O)[nH]c4ccccc43)c2)c1 [Example 104, N-(3-cyanophenyl)-2-(3-((2-oxo-2,3-dihydro-1H-benzo[d]imidazol-1-yl)methyl)phenyl)acetamide]
9 nM | O=C1CCCN1Cc1sc(Cn2c(=O)[nH]c3ccccc32)cc1Cl [Example 36, 1-((4-chloro-5-((2-oxopyrrolidin-1-yl)methyl)thiophen-2-yl)methyl)-1,3-dihydro-2H-benzo[d]imidazol-2-one]
3 nM | CNC(=O)c1ccc(Cn2c(=O)[nH]c3ccccc32)s1 [Example 47, N-methyl-5-[(2-oxo-2,3-dihydro-1H-benzimidazol-1-yl)methyl]thiophene-2-carboxamide]
6 nM | O=c1[nH]c2ccccc2n1Cc1ccc(CN2CCCS2(=O)=O)cc1 [Example 26, 1-(4-((1,1-dioxidoisothiazolidin-2-yl)methyl)benzyl)-1,3-dihydro-2H-benzo[d]imidazol-2-one]
6 nM | CC(=O)NCc1sc(Cn2c(=O)[nH]c3ccccc32)cc1Cl [Example 38, N-((3-chloro-5-((2-oxo-2,3-dihydro-1H-benzo[d]imidazol-1-yl)methyl)thiophen-2-yl)methyl)acetamide]
8 nM | O=C(Cc1ccc(Cn2c(=O)[nH]c3ccccc32)cc1)N1CCC(F)C1 (stereo not drawn) [Example 108, 1-(4-(2-(3-fluoropyrrolidin-1-yl)-2-oxoethyl)benzyl)-1,3-dihydro-2H-benzo[d]imidazol-2-one]
8 nM | COc1cc(Cn2c(=O)[nH]c3ccccc32)ccc1CNC(C)=O [Example 7, N-({2-methoxy-4-[(2-oxo-2,3-dihydro-1H-benzimidazol-1-yl)methyl]phenyl}methyl)acetamide]
6 nM | CCCS(=O)(=O)NCc1ccc(Cn2c(=O)[nH]c3ccc(F)cc32)cc1 [Example 95, N-(4-((6-fluoro-2-oxo-2,3-dihydro-1H-benzo[d]imidazol-1-yl)methyl)benzyl)propane-1-sulfonamide]
